Measured values taken from publication PMC11672637, “7-O-Carboxylic Acid-Substituted 3-O-Alkyl Difluoroquercetin; An Aztreonam-Potentiating Agent Against Carbapenemase-Producing Pseudomonas aeruginosa Through Simultaneous Inhibition of Metallo-β-Lactamase and Efflux Pump” (Antibiotics, 2024).
Read-outs that look alike come from different tables or passages of the source.

Legend:
[1] = tested on: PA-016, blaIMP; test: MIC / checkerboard with ATM; type: cell-based, P. aeruginosa; set-up: key to Susceptibility category: S: susceptible; I: intermediate; R: resistant
[2] = tested on: PA-009, blaGES; test: MIC / checkerboard with ATM; type: cell-based, P. aeruginosa; set-up: key to Susceptibility category: S: susceptible; I: intermediate; R: resistant
[3] = tested on: PA-021, blaIMP; test: MIC / checkerboard with ATM; type: cell-based, P. aeruginosa; set-up: key to Susceptibility category: S: susceptible; I: intermediate; R: resistant; settings: for MIC: Pseudomonas aeruginosa
[4] = tested on: PA-038, blaNDM; test: MIC / checkerboard with ATM; type: cell-based, P. aeruginosa; set-up: key to Susceptibility category: S: susceptible; I: intermediate; R: resistant; settings: PA-038
[5] = tested on: PA-003, blaVIM; test: Time–kill assay; type: cell-based, P. aeruginosa; settings: 24 h
Description: (§1) Aliquots (50 μL) were taken from the incubation mixture at regular time intervals (t = 0, 3, 6, and 24 h), serially diluted in 0.85% NaCl solution, and plated on BAP. Bacterial colonies were counted, and the data are presented as the means of at least three independent experiments.

[6] = tested on: PA-002, blaIMP; test: Time–kill assay; type: cell-based, P. aeruginosa; settings: 24 h
Description: as §1

[7] = tested on: PA-014, blaGES; test: Time–kill assay; type: cell-based, P. aeruginosa; settings: 24 h
Description: as §1

[8] = tested on: PA-017, blaNDM; test: Time–kill assay; type: cell-based, P. aeruginosa; settings: 24 h
Description: as §1

[9] = tested on: PA-041, blaNDM; test: MIC / checkerboard with ATM; type: cell-based, P. aeruginosa; set-up: key to Susceptibility category: S: susceptible; I: intermediate; R: resistant; settings: for MIC: Pseudomonas aeruginosa
[10] = tested on: PA-040, blaNDM; test: MIC / checkerboard with ATM; type: cell-based, P. aeruginosa; set-up: key to Susceptibility category: S: susceptible; I: intermediate; R: resistant; settings: for MIC: Pseudomonas aeruginosa
[11] = tested on: PA-032, blaIMP; test: MIC / checkerboard with ATM; type: cell-based, P. aeruginosa; set-up: key to Susceptibility category: S: susceptible; I: intermediate; R: resistant; settings: for MIC: Pseudomonas aeruginosa
[12] = tested on: wild-type P. aeruginosa (ATCC 27853); test: Time–kill assay; type: cell-based; settings: 24 h
Description: as §1

[13] = tested on: PA-039, blaNDM; test: MIC / checkerboard with ATM; type: cell-based, P. aeruginosa; set-up: key to Susceptibility category: S: susceptible; I: intermediate; R: resistant; settings: PA-039
[14] = tested on: PA-037, blaIMP/NDM; test: MIC / checkerboard with ATM; type: cell-based, P. aeruginosa; set-up: key to Susceptibility category: S: susceptible; I: intermediate; R: resistant; settings: for MIC: Pseudomonas aeruginosa

C[C@H]1[C@H](NC(=O)/C(=N\OC(C)(C)C(=O)O)c2csc(N)n2)C(=O)N1S(=O)(=O)O [ATM, aztreonam]
Susceptibility to ATM ([1]; PA-016, ATM alone): R (R (resistant, MIC ≥ 32 mg/L))
Susceptibility category ([1]; PA-016, Table S2): R
MIC ([1]; Pseudomonas aeruginosa, read-out: MIC of ATM, PA-016, ATM alone (5 at 0 mg/L)): 32 mg/L
Susceptibility to ATM ([2]; PA-009, ATM alone): R (R (resistant, MIC ≥ 32 mg/L))
Susceptibility category ([2]; PA-009, Table S2): R
MIC ([2]; Pseudomonas aeruginosa, read-out: MIC of ATM, PA-009, ATM alone (5 at 0 mg/L)): 32 mg/L
Susceptibility to ATM ([3]; PA-021, ATM alone): S (S (sensitive, MIC ≤ 8 mg/L))
Susceptibility category ([3]; PA-021, Table S2): S
MIC ([3]; PA-021, Table S2, read-out: MIC value): 1 mg/L
MIC ([3]; read-out: MIC of ATM, PA-021, ATM alone (5 at 0 mg/L)): 1 mg/L
Susceptibility to ATM ([4]; ATM alone): I (I (intermediate, MIC = 16 mg/L))
Susceptibility category ([4]; Table S2): I
Log CFU/mL, ATM only ([5]; ATM 1/2 MIC): 9.88 Log CFU/mL
Log CFU/mL, ATM only ([5]; ATM 1/4 MIC): 10.18 Log CFU/mL
Log CFU/mL, ATM only ([5]; ATM 1 MIC): 9.13 Log CFU/mL
Log CFU/mL, ATM only ([5]; ATM 2 MIC): 6.40 Log CFU/mL
Log CFU/mL, ATM only ([6]; ATM 1/2 MIC): 9.02 Log CFU/mL
Log CFU/mL, ATM only ([6]; ATM 1/4 MIC): 9.48 Log CFU/mL
Log CFU/mL, ATM only ([6]; ATM 1 MIC): 8.15 Log CFU/mL
Log CFU/mL, ATM only ([6]; ATM 2 MIC): 5.50 Log CFU/mL
Log CFU/mL, ATM only ([7]; ATM 1/2 MIC): 8.83 Log CFU/mL
Log CFU/mL, ATM only ([7]; ATM 1/4 MIC): 9.33 Log CFU/mL
Log CFU/mL, ATM only ([7]; ATM 1 MIC): 7.68 Log CFU/mL
Log CFU/mL, ATM only ([7]; ATM 2 MIC): 2.45 Log CFU/mL
Log CFU/mL, ATM only ([8]; ATM 1/2 MIC): 9.97 Log CFU/mL
Log CFU/mL, ATM only ([8]; ATM 1/4 MIC): 10.74 Log CFU/mL
Log CFU/mL, ATM only ([8]; ATM 1 MIC): 6.52 Log CFU/mL
Log CFU/mL, ATM only ([8]; ATM 2 MIC): 0.12 Log CFU/mL
Susceptibility to ATM ([9]; PA-041, ATM alone): S (S (sensitive, MIC ≤ 8 mg/L))
Susceptibility category ([9]; PA-041, Table S2): S
MIC ([9]; PA-041, Table S2, read-out: MIC value): 4 mg/L
MIC ([9]; read-out: MIC of ATM, PA-041, ATM alone (5 at 0 mg/L)): 4 mg/L
Susceptibility to ATM ([10]; PA-040, ATM alone): S (S (sensitive, MIC ≤ 8 mg/L))
Susceptibility category ([10]; PA-040, Table S2): S
MIC ([10]; PA-040, Table S2, read-out: MIC value): 4 mg/L
MIC ([10]; read-out: MIC of ATM, PA-040, ATM alone (5 at 0 mg/L)): 4 mg/L
Susceptibility to ATM ([11]; PA-032, ATM alone): S (S (sensitive, MIC ≤ 8 mg/L))
Susceptibility category ([11]; PA-032, Table S2): S
MIC ([11]; PA-032, Table S2, read-out: MIC value): 4 mg/L
MIC ([11]; read-out: MIC of ATM, PA-032, ATM alone (5 at 0 mg/L)): 4 mg/L
Log CFU/mL, ATM only ([12]; ATM 1/2 MIC): 9.31 Log CFU/mL
Log CFU/mL, ATM only ([12]; ATM 1/4 MIC): 9.57 Log CFU/mL
Log CFU/mL, ATM only ([12]; ATM 1 MIC): 8.02 Log CFU/mL
Log CFU/mL, ATM only ([12]; ATM 2 MIC): 0.17 Log CFU/mL
Susceptibility to ATM ([13]; ATM alone): I (I (intermediate, MIC = 16 mg/L))
Susceptibility category ([13]; Table S2): R
Susceptibility to ATM ([14]; PA-037, ATM alone): S (S (sensitive, MIC ≤ 8 mg/L))
Susceptibility category ([14]; PA-037, Table S2): S
MIC ([14]; PA-037, Table S2, read-out: MIC value): 2 mg/L
MIC ([14]; read-out: MIC of ATM, PA-037, ATM alone (5 at 0 mg/L)): 4 mg/L
